# According to US20250145665A1, “MACROCYCLIC PEPTIDES USEFUL AS MODULATORS OF TNF ALPHA” (Bristol-Myers Squibb Company, priority 2023, published 2025):
# Starred links: 1 amine or outer side, 2 acyl side, 3 side chain; linkers in the order of their positions; H or OH if unused. Positions of bridges follow the written chain, without caps; N, C: chain ends. Non-standard residues stand in square brackets, D forms with d. Residues, ends and D or L forms follow the SMILES beside them. *: point of attachment. Bip(4'-(3-HOOC-benzamido)) = N[C@@H](Cc1ccc(-c2ccc(NC(=O)c3cccc(C(=O)O)c3)cc2)cc1)C(=O)O; Bip(4'-NHBz) = N[C@@H](Cc1ccc(-c2ccc(NC(=O)c3ccccc3)cc2)cc1)C(=O)O; Bip(4'-NH) = O=C([C@H](Cc1ccc(-c2ccc(N[*:3])cc2)cc1)N[*:1])[*:2]; Indazole3carbonyl(1-CH2COOH) = O=C(O)Cn1nc(C(=O)*)c2ccccc21; Bip(4'-COOH) = N[C@@H](Cc1ccc(-c2ccc(C(=O)O)cc2)cc1)C(=O)O; X63 = N=C(NCCC[C@@H](N[*:1])C(=O)[*:2])NCCc1cccc(O)c1; X51 = N=C(NCCC[C@@H](N[*:1])C(=O)[*:2])NCCc1ccccc1; Ala(morpholin-4-yl) = N[C@@H](CN1CCOCC1)C(=O)O; Benzoyl(3-OCH2COOH) = O=C(O)COc1cccc(C(=O)*)c1; Phe(3-CONH2) = NC(=O)c1cccc(C[C@H](N)C(=O)O)c1; Bip = N[C@@H](Cc1ccc(-c2ccccc2)cc1)C(=O)O; Tiq1c(1S) = O=C(O)[C@H]1NCCc2ccccc21; X48 = CC(C)(O)Cn1nc(C(=O)*)c2ccccc21; 2Pal = N[C@@H](Cc1ccccn1)C(=O)O; Tic = O=C(O)[C@@H]1Cc2ccccc2CN1; Cha = N[C@@H](CC1CCCCC1)C(=O)O; Tle = CC(C)(C)[C@H](N)C(=O)O; Aze = O=C(O)[C@@H]1CCN1; Sar = CNCC(=O)O
# Biological target: TNFα (Homo sapiens, UniProt P01375)
# Test: TNF-Induced HEK-Blue Assay
# Format: cell-based
# Settings: not given
# Chain of TNFα (P01375 77-233 limits assumed): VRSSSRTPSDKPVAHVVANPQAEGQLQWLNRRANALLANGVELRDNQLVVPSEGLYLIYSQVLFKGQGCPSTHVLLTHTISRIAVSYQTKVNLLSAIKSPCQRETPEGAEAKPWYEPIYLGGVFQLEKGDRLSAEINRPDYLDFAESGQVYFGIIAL
row,Structure (SMILES),IC50
1,CC(C)C[C@@H]1NC(=O)[C@H](CCCNC(=N)N)NC(=O)[C@H](C(C)C)NC(=O)[C@@H]2CCCN2C(=O)[C@H](C(C)C)NC(=O)[C@@H](CCCNC(=N)N)NC(=O)[C@H](CC(=O)O)NC(=O)[C@@H]2CCCN2C(=O)CN(C)C(=O)[C@H](Cc2ccc(-c3ccc(NC(=O)c4nn(CC(C)(C)O)c5ccccc45)cc3)cc2)NC(=O)[C@H](Cc2ccc(-c3ccccc3)cc2)NC(=O)[C@H](CN2CCOCC2)NC(=O)CSC[C@@H](C(=O)NCC(N)=O)NC1=O [Example 355] ({CH2CO}-[Ala(morpholin-4-yl)][Bip][Bip(4'-NH)](X48)[Sar]PD[dR]VPVRLCG-NH2; thioether N-13),< 0.05 µM
2,CC[C@H](C)[C@@H]1NC(=O)[C@@H]2CCCN2C(=O)[C@H]([C@@H](C)CC)NC(=O)[C@@H](CCCNC(=N)N)NC(=O)[C@H](CC(=O)O)NC(=O)[C@H](Cc2ccccn2)NC(=O)CN(C)C(=O)[C@H](Cc2ccc(-c3ccc(NC(=O)c4nn(CC(=O)O)c5ccccc45)cc3)cc2)NC(=O)[C@H](Cc2ccc(-c3ccccc3)cc2)NC(=O)[C@H](C(C)(C)C)NC(=O)CSC[C@@H](C(=O)NCC(N)=O)NC(=O)[C@H](CC(C)C)NC(=O)[C@H](Cc2cccc(C(N)=O)c2)NC1=O [Example 356] ({CH2CO}-[Tle][Bip][Bip(4'-NH)](Indazole3carbonyl(1-CH2COOH))[Sar][2Pal]D[dR]IPI[Phe(3-CONH2)]LCG-NH2; thioether N-13),< 0.05 µM
3,CC[C@H](C)[C@@H]1NC(=O)[C@@H]2CCN2C(=O)[C@H]([C@@H](C)CC)NC(=O)[C@@H](CCCNC(=N)N)NC(=O)[C@H](CC(=O)O)NC(=O)[C@H](Cc2ccc(O)cc2)NC(=O)CN(C)C(=O)[C@H](Cc2ccc(-c3ccc(NC(=O)c4nn(CC(=O)O)c5ccccc45)cc3)cc2)NC(=O)[C@H](Cc2ccc(-c3ccccc3)cc2)NC(=O)[C@H](C(C)(C)C)NC(=O)CSC[C@@H](C(=O)NCC(N)=O)NC(=O)[C@H](CC(C)C)NC(=O)[C@H](Cc2ccc(O)cc2)NC1=O [Example 357] ({CH2CO}-[Tle][Bip][Bip(4'-NH)](Indazole3carbonyl(1-CH2COOH))[Sar]YD[dR]I[Aze]IYLCG-NH2; thioether N-13),0.05 to 0.2 µM
4,CC[C@H](C)[C@@H]1NC(=O)[C@@H]2CCCN2C(=O)[C@H]([C@@H](C)CC)NC(=O)[C@@H](CCCNC(=N)N)NC(=O)[C@H](CC(=O)O)NC(=O)[C@H](Cc2ccccc2)NC(=O)CN(C)C(=O)[C@H](Cc2ccc(-c3ccc(NC(=O)c4nn(CC(=O)O)c5ccccc45)cc3)cc2)NC(=O)[C@H](Cc2ccc(-c3ccc(C(=O)O)cc3)cc2)NC(=O)[C@H](C(C)(C)C)NC(=O)CSC[C@@H](C(=O)NCC(N)=O)NC(=O)[C@H](CC(C)C)NC(=O)[C@H](Cc2cnc[nH]2)NC1=O [Example 359] ({CH2CO}-[Tle][Bip(4'-COOH)][Bip(4'-NH)](Indazole3carbonyl(1-CH2COOH))[Sar]FD[dR]IPIHLCG-NH2; thioether N-13),< 0.05 µM
5,CC[C@H](C)[C@@H]1NC(=O)[C@@H](CCCNC(=N)N)NC(=O)[C@H](CC(=O)O)NC(=O)[C@H](Cc2cnc[nH]2)NC(=O)CN(C)C(=O)[C@H](Cc2ccc(-c3ccc(NC(=O)c4nn(CC(=O)O)c5ccccc45)cc3)cc2)NC(=O)[C@H](Cc2ccc(-c3ccc(C(=O)O)cc3)cc2)NC(=O)[C@H](CC2CCCCC2)NC(=O)CSC[C@@H](C(=O)NCC(N)=O)NC(=O)[C@H](CC(C)C)NC(=O)[C@H](Cc2cnc[nH]2)NC(=O)[C@H](C(C)C)NC(=O)[C@@H]2c3ccccc3CCN2C1=O [Example 360] ({CH2CO}-[Cha][Bip(4'-COOH)][Bip(4'-NH)](Indazole3carbonyl(1-CH2COOH))[Sar]HD[dR]I[Tiq1c(1S)]VHLCG-NH2; thioether N-13),< 0.05 µM
6,CC[C@H](C)[C@@H]1NC(=O)[C@@H](CCCNC(=N)N)NC(=O)[C@H](CC(=O)O)NC(=O)[C@H](Cc2cnc[nH]2)NC(=O)CN(C)C(=O)[C@H](Cc2ccc(-c3ccc(NC(=O)c4nn(CC(=O)O)c5ccccc45)cc3)cc2)NC(=O)[C@H](Cc2ccc(-c3ccc(C(=O)O)cc3)cc2)NC(=O)[C@H](CC2CCCCC2)NC(=O)CSC[C@@H](C(=O)NCC(N)=O)NC(=O)[C@H](CC(C)C)NC(=O)[C@H](Cc2cnc[nH]2)NC(=O)[C@H](C(C)C)NC(=O)[C@@H]2Cc3ccccc3CN2C1=O [Example 361] ({CH2CO}-[Cha][Bip(4'-COOH)][Bip(4'-NH)](Indazole3carbonyl(1-CH2COOH))[Sar]HD[dR]I[Tic]VHLCG-NH2; thioether N-13),< 0.05 µM
7,CC(C)C[C@@H]1NC(=O)[C@H](Cc2ccccn2)NC(=O)[C@H](C(C)C)NC(=O)[C@@H]2CCCN2C(=O)[C@H](C(C)C)NC(=O)[C@@H](CCCNC(=N)N)NC(=O)[C@H](CC(=O)O)NC(=O)[C@H](Cc2ccc(O)cc2)NC(=O)CN(C)C(=O)[C@H](Cc2ccc(-c3ccc(NC(=O)c4nn(CC(=O)O)c5ccccc45)cc3)cc2)NC(=O)[C@H](Cc2ccc(-c3ccc(C(=O)O)cc3)cc2)NC(=O)[C@H](CC2CCCCC2)NC(=O)CSC[C@@H](C(=O)NCC(N)=O)NC1=O [Example 362] ({CH2CO}-[Cha][Bip(4'-COOH)][Bip(4'-NH)](Indazole3carbonyl(1-CH2COOH))[Sar]YD[dR]VPV[2Pal]LCG-NH2; thioether N-13),< 0.05 µM
8,CC(C)C[C@@H]1NC(=O)[C@H](Cc2ccc(O)cc2)NC(=O)[C@H](C(C)C)NC(=O)[C@@H]2CCCN2C(=O)[C@H](C(C)C)NC(=O)[C@@H](CCCNC(=N)N)NC(=O)[C@H](CC(=O)O)NC(=O)[C@@H]2CCCN2C(=O)CN(C)C(=O)[C@H](Cc2ccc(-c3ccc(NC(=O)c4nn(CC(=O)O)c5ccccc45)cc3)cc2)NC(=O)[C@H](Cc2ccc(-c3ccc(C(=O)O)cc3)cc2)NC(=O)[C@H](CC2CCCCC2)NC(=O)CSC[C@@H](C(=O)NCC(N)=O)NC1=O [Example 363] ({CH2CO}-[Cha][Bip(4'-COOH)][Bip(4'-NH)](Indazole3carbonyl(1-CH2COOH))[Sar]PD[dR]VPVYLCG-NH2; thioether N-13),< 0.05 µM
9,CC[C@H](C)[C@@H]1NC(=O)[C@@H](CCCNC(=N)N)NC(=O)[C@H](CC(=O)O)NC(=O)[C@H](Cc2cnc[nH]2)NC(=O)CN(C)C(=O)[C@H](Cc2ccc(-c3ccc(NC(=O)c4nn(CC(=O)O)c5ccccc45)cc3)cc2)NC(=O)[C@H](Cc2ccc(-c3ccccc3)cc2)NC(=O)[C@H](CC2CCCCC2)NC(=O)CSC[C@@H](C(=O)NCC(N)=O)NC(=O)[C@H](CC(C)C)NC(=O)[C@H](Cc2cnc[nH]2)NC(=O)[C@H](C(C)C)NC(=O)[C@@H]2CCCN2C1=O [Example 364] ({CH2CO}-[Cha][Bip][Bip(4'-NH)](Indazole3carbonyl(1-CH2COOH))[Sar]HD[dR]IPVHLCG-NH2; thioether N-13),< 0.05 µM
10,CC(C)C[C@@H]1NC(=O)[C@H](CCCNC(=N)N)NC(=O)[C@H](C(C)C)NC(=O)[C@@H]2CCCN2C(=O)[C@H](C(C)C)NC(=O)[C@@H](CCCNC(=N)NCCc2ccccc2)NC(=O)[C@H](CC(=O)O)NC(=O)[C@@H]2CCCN2C(=O)CN(C)C(=O)[C@H](Cc2ccc(-c3ccc(NC(=O)c4nn(CC(=O)O)c5ccccc45)cc3)cc2)NC(=O)[C@H](Cc2ccc(-c3ccccc3)cc2)NC(=O)[C@H](CN2CCOCC2)NC(=O)CSC[C@@H](C(=O)NCC(N)=O)NC1=O [Example 365] ({CH2CO}-[Ala(morpholin-4-yl)][Bip][Bip(4'-NH)](Indazole3carbonyl(1-CH2COOH))[Sar]PD[X51]VPVRLCG-NH2; thioether N-13),< 0.05 µM
11,CC(C)C[C@@H]1NC(=O)[C@H](CCCNC(=N)N)NC(=O)[C@H](C(C)C)NC(=O)[C@@H]2CCCN2C(=O)[C@H](C(C)C)NC(=O)[C@@H](CCCNC(=N)NCCc2cccc(O)c2)NC(=O)[C@H](CC(=O)O)NC(=O)[C@@H]2CCCN2C(=O)CN(C)C(=O)[C@H](Cc2ccc(-c3ccc(NC(=O)c4nn(CC(=O)O)c5ccccc45)cc3)cc2)NC(=O)[C@H](Cc2ccc(-c3ccccc3)cc2)NC(=O)[C@H](CN2CCOCC2)NC(=O)CSC[C@@H](C(=O)NCC(N)=O)NC1=O [Example 366] ({CH2CO}-[Ala(morpholin-4-yl)][Bip][Bip(4'-NH)](Indazole3carbonyl(1-CH2COOH))[Sar]PD[X63]VPVRLCG-NH2; thioether N-13),< 0.05 µM
12,CC[C@H](C)[C@@H]1NC(=O)[C@@H]2CCCN2C(=O)[C@H]([C@@H](C)CC)NC(=O)[C@@H](CCCNC(=N)N)NC(=O)[C@H](CC(=O)O)NC(=O)[C@H](Cc2ccccn2)NC(=O)CN(C)C(=O)[C@H](Cc2ccc(-c3ccc(NC(=O)c4ccccc4)cc3)cc2)NC(=O)[C@H](Cc2ccc(-c3ccccc3)cc2)NC(=O)[C@H](C(C)(C)C)NC(=O)CSC[C@@H](C(=O)NCC(N)=O)NC(=O)[C@H](CC(C)C)NC(=O)[C@H](Cc2cccc(C(N)=O)c2)NC1=O [Example 367] ({CH2CO}-[Tle][Bip][Bip(4'-NHBz)][Sar][2Pal]D[dR]IPI[Phe(3-CONH2)]LCG-NH2; thioether N-13),< 0.05 µM

# Same assay, conditions: HEK-Blue-CD40L cells, NF-kB-driven secreted alkaline phosphatase reporter; TNFα 0.5 ng/ml; 18 h; read-out: TNF induced HEK-Blue assay IC50 value
row,IC50,Structure (SMILES)
1,< 0.05 µM,CC[C@H](C)[C@@H]1NC(=O)[C@@H]2CCCN2C(=O)[C@H]([C@@H](C)CC)NC(=O)[C@@H](CCCNC(=N)N)NC(=O)[C@H](CC(=O)O)NC(=O)[C@H](Cc2ccccn2)NC(=O)CN(C)C(=O)[C@H](Cc2ccc(-c3ccc(NC(=O)c4cccc(C(=O)O)c4)cc3)cc2)NC(=O)[C@H](Cc2ccc(-c3ccccc3)cc2)NC(=O)[C@H](C(C)(C)C)NC(=O)CSC[C@@H](C(=O)NCC(N)=O)NC(=O)[C@H](CC(C)C)NC(=O)[C@H](Cc2cccc(C(N)=O)c2)NC1=O [Example 368] ({CH2CO}-[Tle][Bip][Bip(4'-(3-HOOC-benzamido))][Sar][2Pal]D[dR]IPI[Phe(3-CONH2)]LCG-NH2; thioether N-13)
2,0.05 to 0.2 µM,CC(C)C[C@@H]1NC(=O)[C@H](Cc2ccc(O)cc2)NC(=O)[C@H](C(C)C)NC(=O)[C@@H]2Cc3ccccc3CN2C(=O)[C@H](C(C)C)NC(=O)[C@@H](CCCNC(=N)N)NC(=O)[C@H](CC(=O)O)NC(=O)[C@@H]2CCCN2C(=O)CN(C)C(=O)[C@H](Cc2ccc(-c3ccc(NC(=O)c4cccc(OCC(=O)O)c4)cc3)cc2)NC(=O)[C@H](Cc2ccc(-c3ccc(C(=O)O)cc3)cc2)NC(=O)[C@H](CC2CCCCC2)NC(=O)CSC[C@@H](C(=O)NCC(N)=O)NC1=O [Example 369] ({CH2CO}-[Cha][Bip(4'-COOH)][Bip(4'-NH)](Benzoyl(3-OCH2COOH))[Sar]PD[dR]V[Tic]VYLCG-NH2; thioether N-13)
